Usually IC50 stands for the concentration at which inhibition is half-maximal.

The target in this experiment is human PKR1 receptors (Homo sapiens (Human), UniProt Q8TCW9). The experiment in a line: PKR1 antagonist assay: block of PK1-mediated intracellular calcium release (FLIPR Tetra). In kind it is cell-based. The note with it: RBL2H3 cells expressing human PKR1; stimulation with PK1 at EC80; calcium fluorescence. The method in brief: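 RBL2H3 cells expressing human PKR1, loaded 1 h at 37 °C with Calcium 5 dye plus 1 mM probenecid in HBSS/25 mM HEPES/0.1% BSA, pH 7.4. Compounds (0.32 nM–10 µM final) preincubated 10 min, then PK1 added at EC80; fluorescence read at 525 nm (excitation 485 nm).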

Each structure is given as a SMILES string.

human PKR1 receptors, sequence (Q8TCW9 whole entry): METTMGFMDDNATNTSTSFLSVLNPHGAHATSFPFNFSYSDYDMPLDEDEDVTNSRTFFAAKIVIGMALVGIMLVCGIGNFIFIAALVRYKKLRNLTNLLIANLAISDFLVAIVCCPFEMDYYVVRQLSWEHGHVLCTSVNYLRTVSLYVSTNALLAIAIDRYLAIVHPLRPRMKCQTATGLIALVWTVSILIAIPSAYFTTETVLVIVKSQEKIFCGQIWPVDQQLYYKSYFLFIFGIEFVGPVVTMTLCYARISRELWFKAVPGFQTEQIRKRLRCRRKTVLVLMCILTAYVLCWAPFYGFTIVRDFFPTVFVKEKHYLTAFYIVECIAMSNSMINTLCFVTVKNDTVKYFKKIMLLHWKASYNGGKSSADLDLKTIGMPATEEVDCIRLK

In the case of `COc1cc(C(=O)N2CCCC(c3ccc(Cl)cc3C)C2)ccn1` (stereo not shown) [Example 32, 4-{[3-(4-Chloro-2-methylphenyl)piperidin-1-yl]carbonyl}-2-methoxypyridine], the IC50 worked out at 490 nM.
Next, `Cc1cc(Cl)ccc1C1=CN(C(=O)c2ccnc(N(C)C)c2)CCC1` [Example 105, 4-{[5-(4-Chloro-2-methylphenyl)-1,2,3,4-tetrahydropyridin-1-yl]carbonyl}-N,N-dimethylpyridin-2-amine]: 270 nM.
Next, `CN(C)c1cc(C(=O)N2CCCCC(c3ccc(Cl)cc3)C2)cnn1` (stereo not shown) [Example 115, 5-{[3-(4-Chlorophenyl)azepan-1-yl]carbonyl}-N,N-dimethylpyridazin-3-amine]: 1440 nM; `O=C(c1ccnc(N2CCC2)c1)N1CCCC(c2ccc(Cl)cc2)C1` (stereo not shown) [Example 22, 2-(Azetidin-1-yl)-4-{[3-(4-chlorophenyl)piperidin-1-yl]carbonyl}pyridine]: 1040 nM.

The values above are taken from patent US9790201B2, “Piperidine and azepine derivatives as prokineticin receptor modulators” (TAKEDA PHARMACEUTICAL COMPANY LIMITED, priority 2013, dated 2017).
